Test results from ChEMBL document CHEMBL2074547, “Efflux of sphingoid bases by P-glycoprotein in human intestinal Caco-2 cells” (Biosci Biotechnol Biochem, 2004).

The compounds below were run against ATP-dependent translocase ABCB1 (Homo sapiens, UniProt P08183) (assay: TP_TRANSPORTER: cell accumulation (digoxin-sensitive) in Caco-2 cells).
Chain of ATP-dependent translocase ABCB1 (P08183 whole entry): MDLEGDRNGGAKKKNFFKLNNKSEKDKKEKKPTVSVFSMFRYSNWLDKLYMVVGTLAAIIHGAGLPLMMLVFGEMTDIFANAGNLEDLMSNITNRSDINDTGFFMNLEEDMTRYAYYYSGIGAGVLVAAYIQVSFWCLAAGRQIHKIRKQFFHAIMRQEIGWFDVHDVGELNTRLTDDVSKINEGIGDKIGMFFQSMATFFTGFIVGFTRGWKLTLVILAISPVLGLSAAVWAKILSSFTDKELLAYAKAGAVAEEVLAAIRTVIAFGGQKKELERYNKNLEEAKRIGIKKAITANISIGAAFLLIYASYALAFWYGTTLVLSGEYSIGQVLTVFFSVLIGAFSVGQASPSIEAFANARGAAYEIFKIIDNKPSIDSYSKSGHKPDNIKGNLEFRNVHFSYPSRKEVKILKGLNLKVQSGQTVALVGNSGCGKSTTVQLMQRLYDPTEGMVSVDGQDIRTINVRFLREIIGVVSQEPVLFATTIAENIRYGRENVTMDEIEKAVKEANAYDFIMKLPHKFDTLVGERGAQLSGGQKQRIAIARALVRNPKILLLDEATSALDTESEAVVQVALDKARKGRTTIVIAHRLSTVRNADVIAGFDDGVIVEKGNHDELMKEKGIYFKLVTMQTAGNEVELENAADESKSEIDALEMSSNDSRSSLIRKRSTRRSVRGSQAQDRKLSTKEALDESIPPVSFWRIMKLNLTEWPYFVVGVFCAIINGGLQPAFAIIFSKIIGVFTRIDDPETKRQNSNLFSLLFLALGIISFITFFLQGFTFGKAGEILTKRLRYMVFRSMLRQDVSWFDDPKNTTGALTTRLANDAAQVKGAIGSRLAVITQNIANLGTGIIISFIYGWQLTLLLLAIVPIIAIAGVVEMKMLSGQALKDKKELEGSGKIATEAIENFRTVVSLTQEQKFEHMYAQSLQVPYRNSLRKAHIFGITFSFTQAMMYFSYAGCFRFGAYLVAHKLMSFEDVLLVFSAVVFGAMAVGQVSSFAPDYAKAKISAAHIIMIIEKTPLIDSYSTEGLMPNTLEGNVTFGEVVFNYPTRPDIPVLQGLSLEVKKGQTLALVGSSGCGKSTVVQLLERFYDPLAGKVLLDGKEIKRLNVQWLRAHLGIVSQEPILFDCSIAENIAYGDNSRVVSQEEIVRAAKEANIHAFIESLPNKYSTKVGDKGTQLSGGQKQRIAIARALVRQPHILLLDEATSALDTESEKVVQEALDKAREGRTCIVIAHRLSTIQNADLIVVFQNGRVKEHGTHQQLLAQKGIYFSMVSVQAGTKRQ
Format: functional, cell-based
`CCCCCCCCC/C(C)=C/CC/C=C/C(O)C(N)CO` (configuration not stated) was tested, and the Activity was “substrate [+]”. `CCCCCCCCC/C=C/CC/C=C/C(O)C(N)CO` (configuration not stated) was tested, and the Activity was “substrate [+]”. `CCCCCCCCC/C=C\CC/C=C/C(O)C(N)CO` (configuration not stated) was tested, and the Activity was “substrate [+]”. For `CCCCCCCCC/C=C/CCCCC(O)C(N)CO` (configuration not stated), the Activity was “substrate [+]”. For `CCCCCCCCC/C=C\CCCCC(O)C(N)CO` (configuration not stated), the Activity was “substrate [+]”. `CCCCCCCCCCCCCCC[C@@H](O)[C@@H](N)CO` [DIHYDROSPINGOSINE] was tested, and the Activity was “substrate [+]”. For `CCCCCCCCCCCCC/C=C/[C@@H](O)[C@@H](N)CO` [SPHINGOSINE], the Activity was “is not a substrate [-]”.
